# Test results as given in patent US20130123201A1, “MODULATION OF CYTOKINE-INDUCED CHRONIC INFLAMMATORY RESPONSES” (UNIVERSITY OF MANITOBA, priority 2010, published 2013).
# No end group written: not given here.
# Columns and labels:
# human PBMC = assay: ELISA of IL-32-induced TNF-α and IL-1β production in PBMC (ex-vivo); assay type: cell-based; settings: for Effect on IL-32 induced pro-inflammatory protein production (FIG. 21 legend): peripheral blood mononuclear cells; for Effect on IL-32-induced TNF-α production: p<0.05
# From the text: In order to confirm these activities in a physiologically relevant system, we evaluated the impact of the peptide in an ex-vivo assay using human PBMC, because cells recruited from the circulation are a major component of inflammatory infiltrates. Venous blood was collected from healthy volunteers with informed consent in accordance to a protocol approved by the Institutional Review Board at the University of Manitoba. PBMC was isolated from blood following the teaching of Mookherjee et al. (2009, Systems biology evaluation of immune responses induced by human host defence peptide LL-37 in mononuclear cells. Mol. Biosyst. 5:483-496). PBMC were stimulated with chronic inflammatory cytokine IL-32 (20 ng/ml) in the presence and absence of 5 μM of peptides, LL-37 and its derivatives (Table 7) for 24 hr. The tissue culture supernatants were monitored for the production of pro-inflammatory cytokines TNF-α and IL-1β by ELISA. […] Results shown are an average of four independent biological experiments performed with cells isolated from blood of four different donors ±standard error.
# [1] = system: Human macrophage-like THP-1 cells; assay: ELISA of cytokine/chemokine production in THP-1 tissue culture supernatants; assay type: cell-based; settings: macrophage-like THP-1 cells, IL-32 20 ng/mL, 24 hr
# Method: ELISA immunoassay: Tissue culture supernatants were centrifuged at 1500× g for 5-7 min to obtain cell-free samples and the aliquots were stored at −20° C. until further use. Production of chemokine Gro-α was monitored in the tissue culture supernatants by ELISA employing human Gro-α DuoSet (R&D Systems Inc.) as per the manufacturer's instructions. Production of cytokine TNF-α was monitored in the tissue culture supernatants using specific antibody pairs from eBioscience, Inc., and production of IL-8 was monitored using specific antibody pairs from R&D Systems, Inc., as per the manufacturer's instructions. The concentration of the cytokines or chemokines in the tissue culture supernatants was evaluated by establishing a standard curve with serial dilutions of the recombinant human cytokines or chemokines as required.
# ELISA immunoassay: Tissue culture supernatants were centrifuged at 1500× g for 5-7 min to obtain cell-free samples and the aliquots were stored at −20° C. until further use. Production of chemokine Gro-α was monitored in the tissue culture supernatants by ELISA employing human Gro-α DuoSet (R&D Systems Inc.) per the manufacturer's instructions. Production of cytokine TNF-α was monitored in the tissue culture supernatants using specific antibody pairs from eBioscience, Inc., and production of IL-8 was monitored using specific antibody pairs from R&D Systems, Inc., per the manufacturers' instructions. The concentrations of the cytokines or chemokines in the tissue culture supernatants were evaluated by establishing a standard curve with serial dilutions of the recombinant human cytokines or chemokines as required.
# Impact of cationic peptide LL-37 and its synthetic derivatives on IL-32-induced protein production: Human macrophage-like THP-1 cells were stimulated with IL-32 (20 ng/mL) in the presence and absence of cationic peptide LL-37, tissues culture supernatants were monitored for the production of pro-inflammatory cytokines TNF-α and IL-1β, and chemokines after 24 hr of stimulation. […] As LL-37 suppressed IL-32-mediated pro-inflammatory responses, we also evaluated the impact of LL-37 derived synthetic peptides. […] No studies to data have explored the impact of these peptides in the context of chronic inflammation. […] This provides the data that supports further investigation of these peptide candidates as potential therapeutics for diseases characterized by chronic inflammation.
# [2] = human PBMC, IL-32 20 ng/ml, 5 μM peptide, 24 hr
Substance,Effect on IL-32 induced pro-inflammatory protein production (FIG. 21 legend) (human PBMC),Suppression of IL-32-induced TNF-α production (human PBMC; [2]) [%],Effect on IL-32-induced TNF-α production (human PBMC; [2]),Effect on IL-32-induced IL-1β production [1],Effect on IL-32-induced TNF-α production [1],"Effect on IL-32-induced chemokine production (IL-8, GROα) [1]",Effect on IL-32-induced IL-1β production (human PBMC; [2])
"RK-25: LL-37-derived synthetic peptide, SEQ ID NO: 24, RKSKEKIGKEFKRIVQRIKDFLRNL-NH2",suppression,,,,,,
"IG-25: LL-37-derived synthetic peptide, SEQ ID NO: 22, IGKEFKRIVQRIKDFLRNLVPRTES-NH2",suppression,> 90,neutralized,significantly suppressed,significantly suppressed,did not completely neutralize,
"IG-19: LL-37-derived synthetic peptide, SEQ ID NO: 23, IGKEFKRIVQRIKDFLRNL-NH2",suppression,,neutralized,significantly suppressed,significantly suppressed,did not completely neutralize,neutralized
